{"source": "patent US8686143B2", "about": "“Compounds useful as inhibitors of Janus kinases” (Vertex Pharmaceuticals Incorporated, priority 2007, dated 2014)", "data": [{"target": "T1, JAK3 (Homo sapiens, UniProt P52333)", "T1 sequence (P52333 1-1124)": "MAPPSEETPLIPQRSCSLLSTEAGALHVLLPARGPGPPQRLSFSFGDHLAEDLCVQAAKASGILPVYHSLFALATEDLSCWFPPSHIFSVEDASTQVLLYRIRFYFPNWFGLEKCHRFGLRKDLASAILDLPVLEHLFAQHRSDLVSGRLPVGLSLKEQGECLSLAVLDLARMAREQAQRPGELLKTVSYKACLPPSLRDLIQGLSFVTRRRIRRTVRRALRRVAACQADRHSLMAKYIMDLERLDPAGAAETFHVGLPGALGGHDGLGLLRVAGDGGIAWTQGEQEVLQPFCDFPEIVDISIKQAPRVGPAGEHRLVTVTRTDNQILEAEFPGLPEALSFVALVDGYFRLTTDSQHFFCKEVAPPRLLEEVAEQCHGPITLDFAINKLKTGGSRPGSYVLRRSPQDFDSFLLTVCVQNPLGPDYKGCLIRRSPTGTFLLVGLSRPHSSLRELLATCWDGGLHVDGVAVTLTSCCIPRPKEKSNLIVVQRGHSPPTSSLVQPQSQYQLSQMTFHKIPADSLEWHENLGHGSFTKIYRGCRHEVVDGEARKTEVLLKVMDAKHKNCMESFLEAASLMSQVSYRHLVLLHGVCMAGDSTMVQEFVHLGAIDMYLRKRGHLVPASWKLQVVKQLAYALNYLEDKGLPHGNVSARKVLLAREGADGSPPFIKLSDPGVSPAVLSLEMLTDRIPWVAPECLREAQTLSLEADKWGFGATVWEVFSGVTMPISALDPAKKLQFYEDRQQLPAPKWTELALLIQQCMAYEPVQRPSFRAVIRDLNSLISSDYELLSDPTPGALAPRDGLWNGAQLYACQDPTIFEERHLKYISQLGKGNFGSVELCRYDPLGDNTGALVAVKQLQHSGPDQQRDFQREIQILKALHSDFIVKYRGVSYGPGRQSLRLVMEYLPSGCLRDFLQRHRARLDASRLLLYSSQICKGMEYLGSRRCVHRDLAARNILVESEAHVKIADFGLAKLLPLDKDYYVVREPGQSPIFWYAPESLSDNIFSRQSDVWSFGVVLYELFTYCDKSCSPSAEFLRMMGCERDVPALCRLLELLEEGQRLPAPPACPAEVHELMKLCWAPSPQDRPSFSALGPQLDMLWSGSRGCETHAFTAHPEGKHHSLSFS", "assay": "JAK3 Inhibition Assay (33P incorporation into poly(Glu)4Tyr)", "assay_type": "biochemical", "settings": "1 nM JAK3, 5 μM ATP, 1 μM poly(Glu)4Tyr, 25° C.", "outline": "(§1)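 Run at 25°C for 20 min with 1 nM enzyme in pH 7.4 HEPES buffer with MgCl2, DTT, NaCl and BSA. Final substrates were 5 μM ATP (33P-labelled) and 1 μM poly(Glu)4Tyr. Stopped with TCA, filtered, and 33P incorporation counted by scintillation.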", "units": {"Ki": "µM"}, "values": [{"smiles": "CC(C)[C@@H](Nc1ccnc(-c2c[nH]c3ccc(Cl)cc23)n1)C(=O)NCC(F)(F)F", "note": "[Compound 161]", "Ki": "10 to 50"}, {"smiles": "COc1ccc(Nc2nc(N)n(-c3nccc(NC(C)(C)C(=O)NCC(F)(F)F)n3)n2)cc1", "note": "[Compound 38]", "Ki": "1 to 10"}, {"smiles": "Nc1ccc(Nc2nc(N)n(-c3ncc(F)c(N4CCCC4C(=O)NCC(F)(F)F)n3)n2)cc1", "note": "(stereo not drawn) [Compound 56]", "Ki": "≤ 1"}, {"smiles": "CC(=O)Nc1nc2ccc(-c3nccc(NC(C)(C)C(=O)NCC(F)(F)F)n3)cc2s1", "note": "[Compound 82]", "Ki": "1 to 10"}, {"smiles": "CC[C@H](Nc1cc(-n2nc(Nc3ccc(F)cc3)nc2N)ncn1)C(=O)NCC(F)(F)F", "note": "[Compound 34]", "Ki": "≤ 1"}, {"smiles": "CC(C)[C@@H](Nc1nc(-c2c[nH]c(C(=O)NCc3ccccc3)c2)ncc1F)C(=O)NCC(F)(F)F", "note": "[Compound 104]", "Ki": "1 to 10"}, {"smiles": "CC(C)NC(=O)c1cc(-c2ncc(F)c(NC(C)(C)C(=O)NCC(F)(F)F)n2)c[nH]1", "note": "[Compound 96]", "Ki": "10 to 50"}, {"smiles": "C[C@H](Nc1nc(-c2cccnc2N)ncc1F)C(=O)NCC(F)(F)F", "note": "[Compound 27]", "Ki": "1 to 10"}, {"smiles": "CC(C)(Nc1ccnc(-c2c[nH]c(C(=O)NCc3ccccc3)c2)n1)C(=O)NCC(F)(F)F", "note": "[Compound 99]", "Ki": "10 to 50"}, {"smiles": "CC(C)(Nc1ccnc(-c2ccc3nc(N)sc3c2)n1)C(=O)NCC(F)(F)F", "note": "[Compound 79]", "Ki": "1 to 10"}, {"smiles": "CC(C)[C@@H](Nc1ccnc(-c2ccc(O)cc2)n1)C(=O)NCC(F)(F)F", "note": "[Compound 167]", "Ki": "1 to 10"}, {"smiles": "CC(C)(Nc1ccnc(-c2ccc(=O)[nH]c2)n1)C(=O)NCC(F)(F)F", "note": "[Compound 86]", "Ki": "1 to 10"}, {"smiles": "CC(C)[C@@H](Nc1ccnc(-c2c[nH]c(=O)c(N)c2)n1)C(=O)NCC(F)(F)F", "note": "[Compound 135]", "Ki": "10 to 50"}, {"smiles": "O=C(NCC(F)(F)F)[C@H]1CCCN1c1ccnc(-c2c[nH]c(C(=O)N3CC=CC3)c2)n1", "note": "[Compound 139]", "Ki": "≤ 1"}, {"smiles": "C[C@H](Nc1nc(-c2cccnc2)ncc1F)C(=O)NCC(F)(F)F", "note": "[Compound 4]", "Ki": "1 to 10"}, {"smiles": "CC(C)[C@@H](Nc1ccnc(-c2c[nH]c(C(=O)N3CC=CC3)c2)n1)C(=O)NCC(F)(F)F", "note": "[Compound 114]", "Ki": "≤ 1"}, {"smiles": "Nc1nc(Nc2ccc(F)cc2)nn1-c1cc(NCC(=O)NCC(F)(F)F)ncn1", "note": "[Compound 36]", "Ki": "≤ 1"}, {"smiles": "CC(C)(Nc1ccnc(-c2ccc(O)cc2)n1)C(=O)NCC(F)(F)F", "note": "[Compound 144]", "Ki": "≤ 1"}]}, {"target": "T1, JAK3", "assay": "JAK3 Inhibition Assay (33P incorporation into poly(Glu)4Tyr)", "assay_type": "biochemical", "settings": "at concentrations of 50 μM", "outline": "as §1", "values": [{"smiles": "CC(C)[C@@H](Nc1ccnc(-c2c[nH]c(C(=O)O)c2)n1)C(=O)NCC(F)(F)F", "note": "[Compound 134]", "inhibition of JAK3 at concentrations of 50 μM": "did not inhibit"}, {"smiles": "CC(C)NC(=O)c1cc(-c2nccc(N3CCC[C@@H]3C(=O)NCC(F)(F)F)n2)c[nH]1", "note": "[Compound 122]", "inhibition of JAK3 at concentrations of 50 μM": "did not inhibit"}, {"smiles": "C[C@H](Nc1nc(-c2c[nH]c(C(=O)O)c2)ncc1F)C(=O)NCC(F)(F)F", "note": "[Compound 7]", "inhibition of JAK3 at concentrations of 50 μM": "did not inhibit"}, {"smiles": "O=C(NCC(F)(F)F)[C@@H]1CCCN1c1nc(-c2ccc(F)nc2)ncc1F", "note": "[Compound 25]", "inhibition of JAK3 at concentrations of 50 μM": "did not inhibit"}, {"smiles": "CC(C)(Nc1ccnc(-c2c[nH]c(C(=O)O)c2)n1)C(=O)NCC(F)(F)F", "note": "[Compound 128]", "inhibition of JAK3 at concentrations of 50 μM": "did not inhibit"}, {"smiles": "COc1ccc(-c2nccc(NC(C)(C)C(=O)NCC(F)(F)F)n2)cc1", "note": "[Compound 149]", "inhibition of JAK3 at concentrations of 50 μM": "did not inhibit"}, {"smiles": "CC(C)[C@@H](Nc1ccnc(-c2ccc3c(c2)OCCO3)n1)C(=O)NCC(F)(F)F", "note": "[Compound 146]", "inhibition of JAK3 at concentrations of 50 μM": "did not inhibit"}, {"smiles": "O=C(CCNc1nc(-c2cccnc2F)ncc1F)NCC(F)(F)F", "note": "[Compound 12]", "inhibition of JAK3 at concentrations of 50 μM": "did not inhibit"}, {"smiles": "C[C@H](Nc1nc(-c2ccncc2)ncc1F)C(=O)NCC(F)(F)F", "note": "[Compound 3]", "inhibition of JAK3 at concentrations of 50 μM": "did not inhibit"}]}]}
